Assay results: US20260165323A1, “USE OF STROBILURIN TYPE COMPOUNDS FOR COMBATING PHYTOPATHOGENIC FUNGI CONTAINING AN AMINO ACID SUBSTITUTION F129L IN THE MITOCHONDRIAL CYTOCHROME B PROTEIN CONFERRING RESISTANCE TO QO […]” (priority 2022, published 2026)

Experiments:
Assay type in all cases: in vivo
Puccinia recondita [1] = test: Use Example 4: preventative control of brown rust on wheat (PUCCRT P7); conditions: inoculated seven days after spraying, % diseased leaf area
How it was run: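 First two leaves of potted wheat seedlings sprayed to run-off with compound in acetone/DMSO–emulsifier–water, then inoculated with Puccinia recondita spores seven days later. Plants held 24 h dark at 95–99% RH and 20–24 °C, then 9–11 days in greenhouse; diseased leaf area (%) scored visually.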

Puccinia recondita [2] = test: Use Example 3: curative control of brown rust on wheat (PUCCRT K4); conditions: % diseased leaf area
How it was run: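 Wheat seedlings inoculated with Puccinia recondita spores, held 24 h at 95–99% RH, 20–24° C in dark, then 3 days in greenhouse before spraying to run-off (curative). Compound in acetone/DMSO–Wettol–water. After 5–7 further days at 20–24° C, 65–70% RH, % diseased leaf area scored visually.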

[3] = test system: Phakopsora pachyrhizi containing the amino acid substitution F129L in the mitochondrial cytochrome b protein; test: Use Example 1: protective control of soybean rust on soybeans (PHAKPA P2); conditions: inoculated 2 days after spraying, % diseased leaf area
How it was run: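 Soybean seedling leaves sprayed to run-off with compound in acetone/DMSO–Wettol–water at the stated concentration, kept 2 days at 23-27° C, then inoculated with Qo-inhibitor-resistant F129L P. pachyrhizi. After 24 h at ~95% RH, 20-24° C, and up to 14 days in greenhouse, % diseased leaf area scored visually.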

[4] = test system: Phakopsora pachyrhizi containing the amino acid substitution F129L in the mitochondrial cytochrome b protein; test: Use Example 2: protective control of soybean rust on soybeans (PHAKPA P6); conditions: inoculated six days after spraying, % diseased leaf area
How it was run: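 Compound in acetone and/or DMSO with Wettol (99:1), diluted with water, was sprayed to run-off on potted soybean seedlings. After six days at 23–27°C and 60–80% RH, plants were inoculated with a Qo-resistant F129L strain and held 24 h at about 95% RH. Percent diseased leaf area was scored visually after up to 14 days.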

SMILES	% PUCCRT Disease level P7 at 4 ppm (Puccinia recondita [1]) [%]	% PUCCRT Disease level P7 at 16 ppm (Puccinia recondita [1]) [%]	% PUCCRT Disease level K4 at 4 ppm (Puccinia recondita [2]) [%]	% PUCCRT Disease level K4 at 16 ppm (Puccinia recondita [2]) [%]	% PHAKPA (F129L) Disease level P2 at 4 ppm [3] [%]	% PHAKPA (F129L) Disease level P2 at 16 ppm [3] [%]	% PHAKPA (F129L) Disease level P6 at 4 ppm [4] [%]	% PHAKPA (F129L) Disease level P6 at 16 ppm [4] [%]
CCOC/C(=N\OCc1c(Cl)cccc1/C(=C\OC)C(=O)OC)c1cccc(F)c1 [compound 27]	40	7	57	12	5	0	17	1
CCOC/C(=N\OCc1c(Cl)cccc1/C(=N\OC)C(=O)OC)c1ccccc1 [compound 53]	87	78	83	78	88	57	93	80
CCOC/C(=N\OCc1c(Cl)cccc1/C(=N\OC)C(=O)NC)c1cccc(Cl)c1 [compound 40]	30	4	73	40	15	1	33	4
CCOCC(=NOCc1c(Cl)cccc1C(=COC)C(=O)OC)c1ccc(F)cc1 [compound 23]	37	6	67	23	9	0	25	6
CCOC/C(=N\OCc1c(Cl)cccc1/C(=N\OC)C(=O)NC)c1ccccc1 [compound 55]	53	29	77	47	37	1	40	9
CO/C=C(/C(=O)OC)c1cccc(Br)c1CO/N=C(/C#Cc1ccc(F)cc1)COC [compound 8, Methyl-(E)-2-[3-bromo-2-[[(Z)-[3-(4-fluorophenyl)-1-(methoxymethyl)prop-2-ynylidene]amino]oxymethyl]phenyl]-3-methoxy-prop-2-enoate]	0	0	6	0	2	0	12	0
CO/C=C(/C(=O)OC)c1cccc(Cl)c1CO/N=C(\COC)c1ccc(F)c(F)c1F [compound 101]	54	3	35	3	2	0	6	0
CCOC/C(=N\OCc1c(Cl)cccc1/C(=N\OC)C(=O)NC)c1ccc(Cl)cc1 [compound 46]	60	10	67	38	80	20	68	16
COC/C(=N\OCc1c(Cl)cccc1/C(=N\OC)C(=O)OC)c1c(F)cccc1F [compound 83]	32	12	37	18	2	0	0	0
